Like-named read-outs stand apart in the source and are kept apart here.
Target: T1, Androgen Receptor (Homo sapiens, UniProt P10275)
T1 construct: endogenous in cells; host or cells: VCaP cells
T1 sequence (P10275 1-920): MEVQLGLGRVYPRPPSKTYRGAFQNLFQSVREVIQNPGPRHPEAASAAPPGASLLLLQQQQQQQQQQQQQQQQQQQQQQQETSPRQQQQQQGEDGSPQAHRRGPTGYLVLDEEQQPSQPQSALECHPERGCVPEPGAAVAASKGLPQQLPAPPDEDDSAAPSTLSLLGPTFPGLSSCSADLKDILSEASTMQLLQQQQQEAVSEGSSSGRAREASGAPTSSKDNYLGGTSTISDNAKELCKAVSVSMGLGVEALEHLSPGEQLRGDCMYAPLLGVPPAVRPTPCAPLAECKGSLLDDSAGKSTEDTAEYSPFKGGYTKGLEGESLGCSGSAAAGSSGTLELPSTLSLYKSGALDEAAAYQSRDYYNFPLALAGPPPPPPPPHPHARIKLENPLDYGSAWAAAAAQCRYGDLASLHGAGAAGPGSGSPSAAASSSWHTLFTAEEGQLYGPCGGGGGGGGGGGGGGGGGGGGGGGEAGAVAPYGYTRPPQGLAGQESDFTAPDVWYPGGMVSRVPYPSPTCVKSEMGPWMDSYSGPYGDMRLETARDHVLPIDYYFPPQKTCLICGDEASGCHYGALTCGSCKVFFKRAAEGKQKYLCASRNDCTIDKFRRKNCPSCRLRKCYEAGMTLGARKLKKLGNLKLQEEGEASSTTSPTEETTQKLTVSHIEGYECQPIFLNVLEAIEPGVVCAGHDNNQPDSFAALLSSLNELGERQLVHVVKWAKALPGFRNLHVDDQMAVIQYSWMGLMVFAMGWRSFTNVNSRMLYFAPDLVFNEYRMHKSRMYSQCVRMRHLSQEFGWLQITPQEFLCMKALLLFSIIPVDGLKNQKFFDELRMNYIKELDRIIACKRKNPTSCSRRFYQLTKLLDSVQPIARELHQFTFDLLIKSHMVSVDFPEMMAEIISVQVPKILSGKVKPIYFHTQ
Assay: Androgen Receptor ELISA assay (PathScan AR ELISA) in VCaP cells: AR degradation, Dmax and DC50
Assay type: cell-based
In short: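 After 24 h exposure of VCaP cells (charcoal-stripped serum, 0.1 nM R1881 agonist, 0.1% DMSO) to seven half-log compound concentrations, residual AR in lysates was measured by PathScan ELISA (TMB absorbance, 450 nm). Cells were plated at 30,000/well and grown at least 3 days beforehand.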

[1] = read-out: VCaP DC50; VCaP cells; Table 34
[2] = VCaP cells; Table 34; read-out: VCaP DC50
[3] = VCaP, VCaP cells; Table 34; read-out: VCaP Dmax (%)

DC50 [2]	Dmax [3]	Structure (SMILES)	Dmax (VCaP, read-out: VCaP Dmax (%))	DC50 [1]
		Cc1ncsc1-c1ccc(CNC(=O)[C@@H]2C[C@@H](O)CN2C(=O)[C@@H](NC(=O)COc2ccc3cc(COc4ccc(N5C(=S)N(c6ccc(C#N)c(C(F)(F)F)c6)C(=O)C5(C)C)cc4)ccc3c2)C(C)(C)C)cc1 [Example 378]	51 to 70%	< 50 nM
		Cc1ncsc1-c1ccc(CNC(=O)C2C[C@@H](O)CN2C(=O)[C@@H](NC(=O)CN(C)c2ccc(OCCOc3ccc(N4C(=S)N(c5ccc(C#N)c(C(F)(F)F)c5)C(=O)C4(C)C)cc3)cc2)C(C)(C)C)cc1 (some centres unmarked) [Example 379]	51 to 70%	< 50 nM
		Cc1ncsc1-c1ccc(CNC(=O)[C@H]2C[C@@H](O)CN2C(=O)[C@@H](NC(=O)[C@@H](C)Oc2ccc(OCCOc3ccc(N4C(=S)N(c5ccc(C#N)c(C(F)(F)F)c5)C(=O)C4(C)C)cc3)cc2)C(C)(C)C)cc1 [Example 381]	26 to 50%	< 50 nM
		Cc1ncsc1-c1ccc(CNC(=O)[C@H]2C[C@@H](O)CN2C(=O)[C@@H](NC(=O)[C@H](C)Oc2ccc(OCCOc3ccc(N4C(=S)N(c5ccc(C#N)c(C(F)(F)F)c5)C(=O)C4(C)C)cc3)cc2)C(C)(C)C)cc1 [Example 382]	26 to 50%	< 50 nM
< 50 nM	> 71%	Cc1ncoc1-c1ccc(CNC(=O)[C@@H]2C[C@@H](O)CN2C(=O)[C@@H](NC(=O)COCCCCOc2ccc(Oc3ccc(N4C(=S)N(c5cnc(C#N)c(C(F)(F)F)c5)C(=O)C4(C)C)cc3)cc2)C(C)(C)C)cc1 [Example 383]		
< 50 nM	> 71%	Cc1ncsc1-c1ccc(CNC(=O)[C@@H]2C[C@@H](O)CN2C(=O)[C@@H](NC(=O)COCCCCOc2ccc(Oc3ccc(N4C(=S)N(c5cnc(C#N)c(C(F)(F)F)c5)C(=O)C4(C)C)cc3)cc2)C(C)(C)C)cc1 [Example 384]		
< 50 nM	> 71%	Cc1ncoc1-c1ccc(CNC(=O)[C@@H]2C[C@@H](O)CN2C(=O)[C@@H](NC(=O)COCCCOc2ccc(Oc3ccc(N4C(=S)N(c5cnc(C#N)c(C(F)(F)F)c5)C(=O)C4(C)C)cc3)cc2)C(C)(C)C)cc1 [Example 386]		
	< 25%	Cc1ncsc1-c1ccc(CNC(=O)[C@@H]2C[C@@H](O)CN2C(=O)[C@@H](NC(=O)COCCCOc2ccc(C(=O)N[C@H]3C(C)(C)[C@H](Oc4ccc(C#N)c(Cl)c4)C3(C)C)cc2)C(C)(C)C)cc1 [Example 387]		
< 50 nM	> 71%	Cc1ncsc1-c1ccc([C@H](C)NC(=O)[C@@H]2C[C@@H](O)CN2C(=O)[C@@H](NC(=O)COCC#CCOc2ccc(C(=O)N[C@H]3C(C)(C)[C@H](Oc4ccc(C#N)c(Cl)c4)C3(C)C)cc2)C(C)(C)C)cc1 [Example 388]		
< 50 nM	51 to 70%	Cc1ncoc1-c1ccc([C@H](C)NC(=O)[C@@H]2C[C@@H](O)CN2C(=O)[C@@H](NC(=O)COCCCCNc2ccc(-c3ccc(N4C(=S)N(c5cnc(C#N)c(C(F)(F)F)c5)C(=O)C4(C)C)cc3)cc2)C(C)(C)C)cc1 [Example 390]		
< 50 nM	51 to 70%	Cc1ncsc1-c1ccc(CNC(=O)[C@@H]2C[C@@H](O)CN2C(=O)[C@@H](NC(=O)COCCCCNc2ccc(-c3ccc(N4C(=S)N(c5cnc(C#N)c(C(F)(F)F)c5)C(=O)C4(C)C)cc3)cc2)C(C)(C)C)cc1 [Example 391]		
< 50 nM	51 to 70%	Cc1ncsc1-c1ccc(CNC(=O)[C@@H]2C[C@@H](O)CN2C(=O)[C@@H](NC(=O)CNC(=O)CCCOc2ccc(C(=O)N[C@H]3C(C)(C)[C@H](Oc4ccc(C#N)c(Cl)c4)C3(C)C)cc2)C(C)(C)C)cc1 [Example 393]		
		Cc1ncsc1-c1ccc(CNC(=O)[C@@H]2C[C@@H](O)CN2C(=O)C(C(C)C)n2cccc(OCCCCOc3ccc(-c4ccc(N5C(=S)N(c6ccc(C#N)c(C(F)(F)F)c6)C(=O)C5(C)C)cc4)cc3)c2=O)cc1 (some centres unmarked) [Example 395]	< 25%	
< 50 nM	26 to 50%	Cc1ncsc1-c1ccc(CNC(=O)[C@@H]2C[C@@H](O)CN2C(=O)[C@@H](NC(=O)COCCCCNC(=O)c2ccc(C(=O)N[C@H]3C(C)(C)[C@H](Oc4ccc(C#N)c(Cl)c4)C3(C)C)cc2)C(C)(C)C)cc1 [Example 398]		
		Cc1ncoc1-c1ccc(CNC(=O)[C@@H]2C[C@@H](O)CN2C(=O)[C@@H](NC(=O)COCCCCOc2ccc(-c3ccc(N4C(=S)N(c5ccc(C#N)c(C(F)(F)F)c5)C(=O)C4(C)C)cc3F)cc2)C(C)(C)C)cc1 [Example 399]	> 71%	< 50 nM
		Cc1ncsc1-c1ccc(CNC(=O)[C@@H]2C[C@@H](O)CN2C(=O)[C@@H](NC(=O)COCCCCOc2ccc(-c3ccc(N4C(=S)N(c5ccc(C#N)c(C(F)(F)F)c5)C(=O)C4(C)C)cc3F)cc2)C(C)(C)C)cc1 [Example 400]	> 71%	< 50 nM
		Cc1ncsc1-c1ccc([C@H](C)NC(=O)[C@@H]2C[C@@H](O)CN2C(=O)[C@@H](NC(=O)COCCCCOc2ccc(-c3ccc(N4C(=S)N(c5ccc(C#N)c(C(F)(F)F)c5)C(=O)C4(C)C)cn3)cn2)C(C)(C)C)cc1 [Example 401]	> 71%	< 50 nM
		Cc1ncoc1-c1ccc(CNC(=O)[C@@H]2C[C@@H](O)CN2C(=O)[C@@H](NC(=O)COCCCNC(=O)c2ccc(-c3ccc(N4C(=S)N(c5ccc(C#N)c(C(F)(F)F)c5)C(=O)C4(C)C)cc3)cc2)C(C)(C)C)cc1 [Example 402]	51 to 70%	< 50 nM
		Cc1ncsc1-c1ccc(CNC(=O)[C@@H]2C[C@@H](O)CN2C(=O)[C@@H](NC(=O)COCCCCOc2ccc(-c3ccc(N4C(=S)N(c5ccc(C#N)c(C(F)(F)F)c5)C(=O)C4(C)C)cc3)c(O)c2)C(C)(C)C)cc1 [Example 403]	51 to 70%	< 50 nM
< 50 nM	> 71%	Cc1ncsc1-c1ccc(CNC(=O)[C@@H]2C[C@@H](O)CN2C(=O)[C@@H](NC(=O)COCCC2CCN(c3ccc(C(=O)N[C@H]4C(C)(C)[C@H](Oc5ccc(C#N)c(Cl)c5)C4(C)C)cc3)CC2)C(C)(C)C)cc1 [Example 404]		
< 50 nM	> 71%	Cc1ncsc1-c1ccc(CNC(=O)[C@@H]2C[C@@H](O)CN2C(=O)[C@@H](NC(=O)CO[C@H](C)c2ccc(Oc3ccc(C(=O)N[C@H]4C(C)(C)[C@H](Oc5ccc(C#N)c(Cl)c5)C4(C)C)cc3)cc2)C(C)(C)C)cc1 [Example 405]		
< 50 nM	> 71%	Cc1ncsc1-c1ccc(CNC(=O)[C@@H]2C[C@@H](O)CN2C(=O)[C@@H](NC(=O)CO[C@@H](C)c2ccc(Oc3ccc(C(=O)N[C@H]4C(C)(C)[C@H](Oc5ccc(C#N)c(Cl)c5)C4(C)C)cc3)cc2)C(C)(C)C)cc1 [Example 406]		
< 50 nM	51 to 70%	CC(C)(C)[C@H](NC(=O)COCCCCOc1ccc(C(=O)N[C@H]2C(C)(C)[C@H](Oc3ccc(C#N)c(Cl)c3)C2(C)C)cc1)C(=O)N1C[C@H](O)C[C@H]1C(=O)NCc1ccc(-c2ccccc2)cc1 [Example 407]		
		Cc1ncsc1-c1ccc(CNC(=O)[C@@H]2C[C@@H](O)CN2C(=O)[C@@H](NC(=O)COCCCCOc2ccc(-c3ccc(N4C(=S)N(c5ccc(C#N)c(C(F)(F)F)c5)C(=O)C4(C)C)cc3)cc2O)C(C)(C)C)cc1 [Example 408]	51 to 70%	< 50 nM
< 50 nM	51 to 70%	Cc1ncsc1-c1ccc(CNC(=O)[C@@H]2C[C@@H](O)CN2C(=O)[C@@H](NC(=O)COCCCNC(=O)c2ccc(C(=O)N[C@H]3C(C)(C)[C@H](Oc4ccc(C#N)c(Cl)c4)C3(C)C)cc2)C(C)(C)C)cc1 [Example 409]		
< 50 nM	> 71%	Cc1ncsc1-c1ccc(CNC(=O)[C@@H]2C[C@@H](O)CN2C(=O)[C@@H](NC(=O)COCC2CCN(c3ccc(C(=O)N[C@H]4C(C)(C)[C@H](Oc5ccc(C#N)c(Cl)c5)C4(C)C)cc3)CC2)C(C)(C)C)cc1 [Example 410]		
< 50 nM	> 71%	Cc1ncoc1-c1ccc([C@H](C)NC(=O)[C@@H]2C[C@@H](O)CN2C(=O)[C@@H](NC(=O)COCCCCNc2ccc(C(=O)N[C@H]3C(C)(C)[C@H](Oc4ccc(C#N)c(Cl)c4)C3(C)C)cc2)C(C)(C)C)cc1 [Example 411]		
< 50 nM	51 to 70%	CC(C)(C)[C@H](NC(=O)COCCCCNc1ccc(C(=O)N[C@H]2C(C)(C)[C@H](Oc3ccc(C#N)c(Cl)c3)C2(C)C)cc1)C(=O)N1C[C@H](O)C[C@H]1C(=O)NCc1ccc(-c2scnc2C2CC2)cc1 [Example 412]		
		Cc1ncsc1-c1ccc(CNC(=O)[C@@H]2C[C@@H](O)CN2C(=O)[C@@H](NC(=O)COc2ccc(OCC#Cc3ccc(N4C(=S)N(c5ccc(C#N)c(C(F)(F)F)c5)C(=O)C4(C)C)cc3)cc2)C(C)(C)C)cc1 [Example 413]	51 to 70%	< 50 nM

From patent US11427548B2 (Arvinas Operations, Inc., priority 2015, dated 2022)
